# Reference: publication doi:10.1101/2021.01.21.427566v1, “Gradual opening of Smc arms in prokaryotic condensin” (biorxiv, 2021)
# Columns and labels:
# [1] = target: T1, Bsu Smc (Smc dimer without ScpAB) (Bacillus subtilis, UniProt P51834); test: coupled ATPase assay, ATP titration; type: biochemical; details: wild-type Smc, no DNA, pH 7.5, 2 mM MgCl2, 25 °C
# T1 construct: full-length native (untagged) Smc, expressed in E. coli BL21-Gold (DE3) from pET-22/pET-28; homodimer
# T1 sequence (P51834 1-1186): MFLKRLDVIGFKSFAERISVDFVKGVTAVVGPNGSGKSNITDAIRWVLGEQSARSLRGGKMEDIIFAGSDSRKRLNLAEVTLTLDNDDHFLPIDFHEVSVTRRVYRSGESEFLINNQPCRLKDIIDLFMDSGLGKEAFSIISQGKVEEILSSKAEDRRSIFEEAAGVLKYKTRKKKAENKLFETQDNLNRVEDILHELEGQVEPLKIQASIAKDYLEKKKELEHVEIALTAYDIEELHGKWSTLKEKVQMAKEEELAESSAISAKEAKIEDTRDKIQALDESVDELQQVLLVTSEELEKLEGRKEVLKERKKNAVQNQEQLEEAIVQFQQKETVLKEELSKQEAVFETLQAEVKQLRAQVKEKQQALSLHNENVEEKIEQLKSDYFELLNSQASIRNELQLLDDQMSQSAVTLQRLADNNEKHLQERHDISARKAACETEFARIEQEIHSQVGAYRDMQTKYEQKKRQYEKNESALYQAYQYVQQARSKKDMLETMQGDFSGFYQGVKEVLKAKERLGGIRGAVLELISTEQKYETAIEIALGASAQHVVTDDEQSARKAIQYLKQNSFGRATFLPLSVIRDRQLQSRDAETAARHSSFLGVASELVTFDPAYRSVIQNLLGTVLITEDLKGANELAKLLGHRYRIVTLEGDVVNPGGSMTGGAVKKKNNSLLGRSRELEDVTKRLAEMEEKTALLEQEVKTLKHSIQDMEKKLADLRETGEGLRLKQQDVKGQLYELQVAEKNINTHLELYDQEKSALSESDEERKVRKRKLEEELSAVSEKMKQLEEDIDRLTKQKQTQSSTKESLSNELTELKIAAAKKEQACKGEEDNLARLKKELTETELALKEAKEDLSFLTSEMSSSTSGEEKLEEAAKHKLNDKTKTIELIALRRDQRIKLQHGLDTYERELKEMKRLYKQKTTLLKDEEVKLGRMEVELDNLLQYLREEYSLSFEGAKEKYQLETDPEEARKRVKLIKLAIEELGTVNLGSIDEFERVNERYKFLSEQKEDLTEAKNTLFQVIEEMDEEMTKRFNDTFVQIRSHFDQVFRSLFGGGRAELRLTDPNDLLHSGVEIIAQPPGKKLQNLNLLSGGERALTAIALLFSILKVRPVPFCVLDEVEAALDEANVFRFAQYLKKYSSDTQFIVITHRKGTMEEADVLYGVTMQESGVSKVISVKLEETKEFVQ
# Smc-ScpAB holo-complex = target: T2, Smc-ScpAB holo-complex (Bacillus subtilis, UniProt P51834); test: coupled ATPase assay, ATP titration; type: biochemical; details: wild-type Smc with ScpAB, pH 7.5, 2 mM MgCl2, 25 °C
# T2 construct: full-length native (untagged) Smc, ScpA and ScpB purified separately from E. coli and mixed stoichiometrically; with Segregation and condensation protein A; Segregation and condensation protein B
# T2 sequence (P51834 1-1186): T1 sequence (P51834 1-1186)
# T2 sequence (P35154 1-251 partner): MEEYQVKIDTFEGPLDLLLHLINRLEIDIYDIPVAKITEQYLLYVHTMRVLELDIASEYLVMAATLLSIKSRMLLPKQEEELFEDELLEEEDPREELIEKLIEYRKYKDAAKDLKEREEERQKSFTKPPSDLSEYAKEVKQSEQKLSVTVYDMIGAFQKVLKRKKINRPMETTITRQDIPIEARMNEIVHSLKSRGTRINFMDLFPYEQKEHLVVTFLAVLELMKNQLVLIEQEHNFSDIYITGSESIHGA
# T2 sequence (P35155 1-197 partner): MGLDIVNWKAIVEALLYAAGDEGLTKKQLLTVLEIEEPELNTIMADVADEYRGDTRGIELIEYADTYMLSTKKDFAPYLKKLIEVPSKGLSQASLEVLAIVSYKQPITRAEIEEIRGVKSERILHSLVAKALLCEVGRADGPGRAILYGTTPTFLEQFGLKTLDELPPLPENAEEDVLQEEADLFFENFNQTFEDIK
smiles,measurement,setting,value
Nc1ncnc2c1ncn2[C@@H]1O[C@H](COP(=O)(O)OP(=O)(O)OP(=O)(O)O)[C@@H](O)[C@H]1O [ATP],"coupled ATPase assay, ATP titration",[1],"Measurement of ATP hydrolysis rates for Smc protein (wt), Smc(G302W) and Smc(G302E)"
same,"coupled ATPase assay, ATP titration",Smc-ScpAB holo-complex,increasing concentrations of ATP and in the absence or presence of dsDNA40 and ScpAB
